From patent US20090304692A1, “TRIAZINE COMPOUNDS AS PI3 KINASE AND MTOR INHIBITORS” (Wyeth, priority 2008, published 2009)
Like-named read-outs stand apart in the source and are kept apart here.

Experiments:
Human mTOR (FLAG-TOR) = Human mTOR (FLAG-TOR) (Homo sapiens, UniProt P42345); assay: mTOR kinase assay (DELFIA format, purified enzyme); assay type: biochemical; conditions: read-out: IC50 mTOR
[1] = system: human breast MDA-MB-361 tumor cell line; assay: In vitro cell culture growth assay (MTS), MDA-MB-361; assay type: cell-based; conditions: Homo sapiens, MTS cell growth assay, three days after drug treatment, MDA-MB-361 cells, read-out: IC50 MDA-MB-361
PI3K-α = PI3K-α (Homo sapiens, UniProt P42336); assay: PI3K-alpha fluorescence polarization assay; conditions: read-out: IC50 PI3Kα
Chain of PI3K-α (P42336 whole entry, species assumed): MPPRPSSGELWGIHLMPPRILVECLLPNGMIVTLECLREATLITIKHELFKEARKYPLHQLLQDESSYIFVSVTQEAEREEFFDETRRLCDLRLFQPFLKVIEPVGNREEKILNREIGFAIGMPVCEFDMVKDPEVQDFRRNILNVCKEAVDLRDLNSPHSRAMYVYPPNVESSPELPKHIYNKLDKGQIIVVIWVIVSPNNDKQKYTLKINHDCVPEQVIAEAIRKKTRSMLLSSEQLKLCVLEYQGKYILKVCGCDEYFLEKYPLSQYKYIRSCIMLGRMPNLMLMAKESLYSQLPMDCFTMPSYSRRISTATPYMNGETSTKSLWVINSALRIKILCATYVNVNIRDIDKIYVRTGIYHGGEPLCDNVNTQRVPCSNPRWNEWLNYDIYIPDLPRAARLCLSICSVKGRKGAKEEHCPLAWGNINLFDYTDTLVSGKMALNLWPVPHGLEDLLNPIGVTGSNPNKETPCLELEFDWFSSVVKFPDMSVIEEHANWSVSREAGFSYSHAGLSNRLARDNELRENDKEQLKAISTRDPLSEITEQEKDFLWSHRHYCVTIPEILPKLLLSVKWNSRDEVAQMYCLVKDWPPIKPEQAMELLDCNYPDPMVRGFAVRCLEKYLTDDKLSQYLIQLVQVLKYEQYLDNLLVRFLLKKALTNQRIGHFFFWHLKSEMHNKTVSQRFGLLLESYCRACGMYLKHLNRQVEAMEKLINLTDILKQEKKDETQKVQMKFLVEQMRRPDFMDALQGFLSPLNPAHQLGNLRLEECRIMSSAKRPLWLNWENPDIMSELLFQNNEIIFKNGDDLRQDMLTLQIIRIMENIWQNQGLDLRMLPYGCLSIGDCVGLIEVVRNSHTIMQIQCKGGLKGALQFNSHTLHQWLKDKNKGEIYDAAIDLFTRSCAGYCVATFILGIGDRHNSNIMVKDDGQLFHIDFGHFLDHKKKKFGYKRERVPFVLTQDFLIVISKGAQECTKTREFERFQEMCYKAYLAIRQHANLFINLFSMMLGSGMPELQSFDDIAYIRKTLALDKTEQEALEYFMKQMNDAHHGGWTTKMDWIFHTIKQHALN
Chain of PI3K-α (P27986 whole entry partner, species assumed): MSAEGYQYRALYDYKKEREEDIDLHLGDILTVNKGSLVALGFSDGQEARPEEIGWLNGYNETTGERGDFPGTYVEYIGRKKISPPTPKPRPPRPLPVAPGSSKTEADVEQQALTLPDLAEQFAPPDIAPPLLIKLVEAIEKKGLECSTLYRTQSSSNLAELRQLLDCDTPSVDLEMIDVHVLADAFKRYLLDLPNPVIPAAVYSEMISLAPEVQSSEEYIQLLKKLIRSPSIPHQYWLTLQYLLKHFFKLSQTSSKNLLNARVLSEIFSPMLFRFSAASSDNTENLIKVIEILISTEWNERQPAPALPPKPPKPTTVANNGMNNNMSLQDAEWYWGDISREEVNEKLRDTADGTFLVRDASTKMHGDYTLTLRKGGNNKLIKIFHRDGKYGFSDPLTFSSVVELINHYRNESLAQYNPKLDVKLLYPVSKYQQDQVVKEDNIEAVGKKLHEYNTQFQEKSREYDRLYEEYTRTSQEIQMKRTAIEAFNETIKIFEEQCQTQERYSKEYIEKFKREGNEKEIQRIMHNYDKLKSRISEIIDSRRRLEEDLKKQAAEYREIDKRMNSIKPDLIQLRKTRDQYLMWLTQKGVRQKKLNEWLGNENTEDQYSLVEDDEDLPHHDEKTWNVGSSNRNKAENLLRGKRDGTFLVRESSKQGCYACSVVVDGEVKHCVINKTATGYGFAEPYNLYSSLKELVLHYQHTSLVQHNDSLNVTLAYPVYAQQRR

PI3K-γ = PI3K-γ (Homo sapiens, UniProt P48736); assay: PI3K-gamma fluorescence polarization assay; conditions: read-out: IC50 PI3Kγ
Chain of PI3K-γ (P48736 whole entry, species assumed): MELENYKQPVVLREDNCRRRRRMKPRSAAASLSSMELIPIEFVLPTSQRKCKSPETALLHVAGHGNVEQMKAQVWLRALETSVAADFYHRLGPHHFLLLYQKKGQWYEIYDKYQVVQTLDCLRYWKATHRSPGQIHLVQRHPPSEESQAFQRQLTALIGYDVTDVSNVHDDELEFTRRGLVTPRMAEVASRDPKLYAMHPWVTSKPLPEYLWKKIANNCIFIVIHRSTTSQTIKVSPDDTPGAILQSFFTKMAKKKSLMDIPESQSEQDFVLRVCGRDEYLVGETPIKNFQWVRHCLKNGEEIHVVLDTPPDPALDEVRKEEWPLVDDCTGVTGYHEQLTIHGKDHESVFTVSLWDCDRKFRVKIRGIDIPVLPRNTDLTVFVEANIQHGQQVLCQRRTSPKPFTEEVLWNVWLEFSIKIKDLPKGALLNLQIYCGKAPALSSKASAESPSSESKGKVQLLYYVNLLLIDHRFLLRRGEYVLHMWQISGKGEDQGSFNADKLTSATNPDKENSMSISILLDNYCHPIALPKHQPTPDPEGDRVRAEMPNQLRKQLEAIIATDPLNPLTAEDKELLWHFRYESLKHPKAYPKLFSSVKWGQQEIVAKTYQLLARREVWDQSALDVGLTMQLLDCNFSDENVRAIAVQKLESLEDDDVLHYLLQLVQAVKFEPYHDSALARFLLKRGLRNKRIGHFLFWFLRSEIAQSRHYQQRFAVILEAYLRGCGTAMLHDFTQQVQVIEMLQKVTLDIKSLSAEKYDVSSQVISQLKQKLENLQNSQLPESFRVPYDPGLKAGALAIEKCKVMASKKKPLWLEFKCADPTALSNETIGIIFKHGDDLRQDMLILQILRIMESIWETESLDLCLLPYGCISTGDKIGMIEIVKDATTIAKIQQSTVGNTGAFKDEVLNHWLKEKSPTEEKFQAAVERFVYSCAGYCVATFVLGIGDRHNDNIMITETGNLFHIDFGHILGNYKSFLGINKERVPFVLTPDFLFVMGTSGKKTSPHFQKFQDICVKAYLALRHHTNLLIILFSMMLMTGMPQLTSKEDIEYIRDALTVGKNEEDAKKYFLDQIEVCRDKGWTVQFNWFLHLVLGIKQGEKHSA

[2] = system: human prostate PC3-mm2 tumor cell line; assay: In vitro cell culture growth assay (MTS), PC3-mm2; assay type: cell-based; conditions: Homo sapiens, PC3MM2, 72 h, MTS cell growth assay, three days after drug treatment, PC3-mm2 cells; read-out: IC50 PC3-mm2

Chain of Human mTOR (FLAG-TOR) (P42345 1360-2549 limits assumed): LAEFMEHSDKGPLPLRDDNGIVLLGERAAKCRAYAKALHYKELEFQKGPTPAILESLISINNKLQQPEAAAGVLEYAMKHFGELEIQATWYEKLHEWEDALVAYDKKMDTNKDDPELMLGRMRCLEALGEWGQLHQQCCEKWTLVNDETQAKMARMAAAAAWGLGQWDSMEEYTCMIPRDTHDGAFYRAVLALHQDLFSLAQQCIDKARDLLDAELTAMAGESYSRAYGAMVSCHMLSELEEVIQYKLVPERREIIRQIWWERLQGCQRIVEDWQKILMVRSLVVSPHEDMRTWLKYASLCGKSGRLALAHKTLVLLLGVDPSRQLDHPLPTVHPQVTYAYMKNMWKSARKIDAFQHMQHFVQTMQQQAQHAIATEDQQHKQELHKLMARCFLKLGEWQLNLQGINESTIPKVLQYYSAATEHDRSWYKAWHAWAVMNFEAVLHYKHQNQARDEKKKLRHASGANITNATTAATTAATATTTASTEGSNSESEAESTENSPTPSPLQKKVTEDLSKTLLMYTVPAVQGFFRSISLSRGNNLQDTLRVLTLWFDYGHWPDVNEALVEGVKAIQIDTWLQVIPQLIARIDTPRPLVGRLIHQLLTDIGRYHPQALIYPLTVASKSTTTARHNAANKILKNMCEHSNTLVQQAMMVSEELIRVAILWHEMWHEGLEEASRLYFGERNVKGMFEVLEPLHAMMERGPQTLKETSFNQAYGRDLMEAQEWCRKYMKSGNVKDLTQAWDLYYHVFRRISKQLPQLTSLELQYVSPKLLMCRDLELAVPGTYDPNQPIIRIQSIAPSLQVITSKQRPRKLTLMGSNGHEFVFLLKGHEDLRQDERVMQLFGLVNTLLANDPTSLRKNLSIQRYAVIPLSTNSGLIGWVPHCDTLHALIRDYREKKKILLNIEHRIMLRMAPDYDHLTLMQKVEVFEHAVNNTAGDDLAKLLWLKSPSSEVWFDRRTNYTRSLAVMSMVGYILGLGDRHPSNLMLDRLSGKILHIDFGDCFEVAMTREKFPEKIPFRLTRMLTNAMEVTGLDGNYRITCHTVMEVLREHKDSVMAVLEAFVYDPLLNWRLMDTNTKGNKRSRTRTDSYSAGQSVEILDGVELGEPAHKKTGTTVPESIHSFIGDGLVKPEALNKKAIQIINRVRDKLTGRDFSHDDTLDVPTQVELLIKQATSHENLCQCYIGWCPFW

Compound	IC50 (Human mTOR (FLAG-TOR)) [nM]	IC50 ([1]; 72 h) [nM]	IC50 (PI3K-α) [nM]	IC50 (PI3K-γ) [nM]	IC50 [2] [nM]	IC50 ([1]; MDA-MB-361, 72 h) [nM]
CN1CCN(c2ccc(NC(=O)Nc3ccc(-c4nc(N5CCOCC5)nc(N5C6CCC5COC6)n4)cc3)cn2)CC1 [Example 766, 1-[6-(4-methylpiperazin-1-yl)pyridin-3-yl]-3-{4-[4-morpholin-4-yl-6-(3-oxa-8-azabicyclo[3.2.1]oct-8-yl)-1,3,5-triazin-2-yl]phenyl}urea]	1.31	26	24	85.5	50	
CN(C)C1CCN(C(=O)c2ccc(NC(=O)Nc3ccc(-c4nc(N5CCOCC5)nc(N5C6COCC5COC6)n4)cc3)cc2)CC1 [Example 767, 1-(4-{[4-(dimethylamino)piperidin-1-yl]carbonyl}phenyl)-3-{4-[4-(3,7-dioxa-9-azabicyclo[3.3.1]non-9-yl)-6-morpholin-4-yl-1,3,5-triazin-2-yl]phenyl}urea]	0.2		2.1	17	13	5
CN(C)CCN(C)C(=O)c1ccc(NC(=O)Nc2ccc(-c3nc(N4CCOCC4)nc(N4C5COCC4COC5)n3)cc2)cc1 [Example 768, N-[2-(dimethylamino)ethyl]-4-[({4-[4-(3,7-dioxa-9-azabicyclo[3.3.1]non-9-yl)-6-morpholin-4-yl-1,3,5-triazin-2-yl]phenyl}carbamoyl)amino]-N-methylbenzamide]	0.115	7	1.2	18.5	8	
CN1CCN(C(=O)c2ccc(NC(=O)Nc3ccc(-c4nc(N5CCOCC5)nc(N5C6COCC5COC6)n4)cc3)cc2)CC1 [Example 769, 1-{4-[4-(3,7-dioxa-9-azabicyclo[3.3.1]non-9-yl)-6-morpholin-4-yl-1,3,5-triazin-2-yl]phenyl}-3-{4-[(4-methylpiperazin-1-yl)carbonyl]phenyl}urea]	0.23		2.1	17.5	14	6
COC(=O)c1ccc(NC(=O)Nc2ccc(-c3nc(N4CCOCC4)nc(N4C5COCC4COC5)n3)cc2)cc1 [Example 770, methyl 4-[({4-[4-(3,7-dioxa-9-azabicyclo[3.3.1]non-9-yl)-6-morpholin-4-yl-1,3,5-triazin-2-yl]phenyl}carbamoyl)amino]benzoate]	0.27	40	30.5	99	25	
O=C(Nc1ccc(C(=O)O)cc1)Nc1ccc(-c2nc(N3CCOCC3)nc(N3C4COCC3COC4)n2)cc1 [Example 771, 4-[({4-[4-(3,7-dioxa-9-azabicyclo[3.3.1]non-9-yl)-6-morpholin-4-yl-1,3,5-triazin-2-yl]phenyl}carbamoyl)amino]benzoic acid]	0.215	> 1000	19.5	66	> 1000	
O=C(Nc1ccc(C(=O)N2CCNCC2)cc1)Nc1ccc(-c2nc(N3CCOCC3)nc(N3C4COCC3COC4)n2)cc1 [Example 772, 1-{4-[4-(3,7-dioxa-9-azabicyclo[3.3.1]non-9-yl)-6-morpholin-4-yl-1,3,5-triazin-2-yl]phenyl}-3-[4-(piperazin-1-ylcarbonyl)phenyl]urea]	0.29		0.8	9.5	15	5
CC(C)N1CCN(C(=O)c2ccc(NC(=O)Nc3ccc(-c4nc(N5CCOCC5)nc(N5C6COCC5COC6)n4)cc3)cc2)CC1 [Example 773, 1-{4-[4-(3,7-dioxa-9-azabicyclo[3.3.1]non-9-yl)-6-morpholin-4-yl-1,3,5-triazin-2-yl]phenyl}-3-{4-[(4-isopropylpiperazin-1-yl)carbonyl]phenyl}urea]	0.305		3	36.5	6	4
O=C(Nc1ccc(C(=O)NCCN2CCCC2)cc1)Nc1ccc(-c2nc(N3CCOCC3)nc(N3C4COCC3COC4)n2)cc1 [Example 774, 4-[({4-[4-(3,7-dioxa-9-azabicyclo[3.3.1]non-9-yl)-6-morpholin-4-yl-1,3,5-triazin-2-yl]phenyl}carbamoyl)amino]-N-(2-pyrrolidin-1-ylethyl)benzamide]	0.23	14	2	41.5	19	
O=C(Nc1ccc(C(=O)NCCN2CCCCC2)cc1)Nc1ccc(-c2nc(N3CCOCC3)nc(N3C4COCC3COC4)n2)cc1 [Example 775, 4-[({4-[4-(3,7-dioxa-9-azabicyclo[3.3.1]non-9-yl)-6-morpholin-4-yl-1,3,5-triazin-2-yl]phenyl}carbamoyl)amino]-N-(2-piperidin-1-ylethyl)benzamide]	0.23	5	2.5	46.5	7	
O=C(Nc1ccc(C(=O)N2CCC(N3CCCC3)CC2)cc1)Nc1ccc(-c2nc(N3CCOCC3)nc(N3C4COCC3COC4)n2)cc1 [Example 776, 1-{4-[4-(3,7-dioxa-9-azabicyclo[3.3.1]non-9-yl)-6-morpholin-4-yl-1,3,5-triazin-2-yl]phenyl}-3-{4-[(4-pyrrolidin-1-ylpiperidin-1-yl)carbonyl]phenyl}urea]	0.345		3	29.5	6	< 3.2
O=C(Nc1ccc(C(=O)N2CCC(N3CCCCC3)CC2)cc1)Nc1ccc(-c2nc(N3CCOCC3)nc(N3C4COCC3COC4)n2)cc1 [Example 777, 1-[4-(1,4′-bipiperidin-1′-ylcarbonyl)phenyl]-3-{4-[4-(3,7-dioxa-9-azabicyclo[3.3.1]non-9-yl)-6-morpholin-4-yl-1,3,5-triazin-2-yl]phenyl}urea]	0.265		4	39	4	2
O=C(Nc1ccc(C(=O)NCCc2ccccn2)cc1)Nc1ccc(-c2nc(N3CCOCC3)nc(N3C4COCC3COC4)n2)cc1 [Example 778, 4-[({4-[4-(3,7-dioxa-9-azabicyclo[3.3.1]non-9-yl)-6-morpholin-4-yl-1,3,5-triazin-2-yl]phenyl}carbamoyl)amino]-N-(2-pyridin-2-ylethyl)benzamide]	0.28	17	11.5	126	29	
O=C(Nc1ccc(C(=O)NCCc2ccncc2)cc1)Nc1ccc(-c2nc(N3CCOCC3)nc(N3C4COCC3COC4)n2)cc1 [Example 779, 4-[({4-[4-(3,7-dioxa-9-azabicyclo[3.3.1]non-9-yl)-6-morpholin-4-yl-1,3,5-triazin-2-yl]phenyl}carbamoyl)amino]-N-(2-pyridin-4-ylethyl)benzamide]	0.23	13	4.2	49.7	23	
CN1CCN(C(=O)c2ccc(NC(=O)Nc3ccc(-c4nc(NS(=O)(=O)c5ccccc5)nc(N5CCOCC5)n4)cc3)cc2)CC1 [Example 784, N-(4-{4-[({4-[(4-methylpiperazin-1-yl)carbonyl]phenyl}carbamoyl)amino]phenyl}-6-morpholin-4-yl-1,3,5-triazin-2-yl)benzenesulfonamide]	88	> 1000	40.5	174	> 1000	
O=C(Nc1ccc(C(=O)N2CCNCC2)cc1)Nc1ccc(-c2nc(NS(=O)(=O)c3ccccc3)nc(N3CCOCC3)n2)cc1 [Example 785, N-{4-morpholin-4-yl-6-[4-({[4-(piperazin-1-ylcarbonyl)phenyl]carbamoyl}amino)phenyl]-1,3,5-triazin-2-yl}benzenesulfonamide]	55.5	> 1000	6	45.5	> 1000	
CN(C)C1CCN(C(=O)c2ccc(NC(=O)Nc3ccc(-c4nc(NS(=O)(=O)c5ccccc5)nc(N5CCOCC5)n4)cc3)cc2)CC1 [Example 786, N-[4-(4-{[(4-{[4-(dimethylamino)piperidin-1-yl]carbonyl}phenyl)carbamoyl]amino}phenyl)-6-morpholin-4-yl-1,3,5-triazin-2-yl]benzenesulfonamide]	89		30.5	129	> 1000	> 1000
CN(C)CCN(C)C(=O)c1ccc(NC(=O)Nc2ccc(-c3nc(NS(=O)(=O)c4ccccc4)nc(N4CCOCC4)n3)cc2)cc1 [Example 787, N-[2-(dimethylamino)ethyl]-N-methyl-4-{[(4-{4-morpholin-4-yl-6-[(phenylsulfonyl)amino]-1,3,5-triazin-2-yl}phenyl)carbamoyl]amino}benzamide]	58.5	> 1000	10.5	146	> 1000	
CN(C)CCNC(=O)c1ccc(NC(=O)Nc2ccc(-c3nc(NS(=O)(=O)c4ccccc4)nc(N4CCOCC4)n3)cc2)cc1 [Example 788, N-[2-(dimethylamino)ethyl]-4-{[(4-{4-morpholin-4-yl-6-[(phenylsulfonyl)amino]-1,3,5-triazin-2-yl}phenyl)carbamoyl]amino}benzamide]	26	> 1000	13	160	> 1000	
O=C(Nc1ccncc1)Nc1ccc(-c2nc(N3CCOCC3)nc(N3C4CCCC3COC4)n2)cc1 [Example 791, 1-{4-[4-morpholin-4-yl-6-(3-oxa-9-azabicyclo[3.3.1]non-9-yl)-1,3,5-triazin-2-yl]phenyl}-3-pyridin-4-ylurea]	0.68	11	12.5	64.5	42	
